{
  "source": "patent US4980163A",
  "about": "“Novel bacteriocin compositions for use as enhanced broad range bactericides and methods of preventing and treating microbial infection” (Public Health Research Institute of the City of New York, priority 1989, dated 1990)",
  "tested_on": "Staphylococcus aureus",
  "assay": "Bactericidal activity in milk, percent bacterial survival (Example 1, Table 1)",
  "type": "cell-based",
  "details": "for % survival 2 hr: initial viable counts 5 × 10^7 cfu/ml",
  "protocol": "All tests in the following examples were performed at 37° C. The efficacy of the enhanced broad range bactericides was determined by assaying bactericidal activity as measured by the percent bacterial survival after treatment with the bactericide. Generally, after incubation of a 10^7 cell per ml suspension of target species with the novel bactericide for specified lengths of time, bacteria were collected by centrifugation for 2 minutes. The bacterial pellet was washed free of the bactericide with a rescue buffer, termed herein Phage buffer (50 mM Tris-HCl buffer pH 7.8, 1 mM MgSO4, 4 mM CaCl2, 0.1M NaCl, and 0.1% gelatin), resuspended and serially diluted into Phage buffer, and 100 μl of the suspended bacteria were spread on nutrient agar plates. Surviving bacteria were determined by scoring colony forming units (CFU) after incubation for 24-48 hours at 37° C. An effective bactericide according to this invention is one which allows less than 0.1% of the initial viable count of the bacteria to survive.\nStaphylococcus aureus cells were suspended and incubated in milk at 37° C. for 2 hours with various concentrations of lysostaphin, nisin, or a combination of lysostaphin and nisin in the milk. The bactericidal efficacy of the bactericides was estimated by determining the percent survival of bacteria as described above.",
  "note": "Where “and” joins values, the source holds several entries; their conditions need not be identical. Identical values can stand only once. Where no end group is shown, it is not given here.",
  "data": [
    {"substance": "Nisin (ITSISLCTPGCKTGALMGCNMKTATCHCSIHVSK; also: lantibiotic nisin-A: lanthionine rings and dehydrated residues, places not given here; UniProt P13068 24-57, looked up) [lanthionine containing peptide bacteriocin produced by Streptococcus lactis]", "values": [
      {"measurement": "% survival 2 hr", "setting": "Nisin 0.2 μg/ml, Lysostaphin 0, milk, 37° C.", "result": 45, "unit": "%"},
      {"measurement": "% survival 2 hr", "setting": "Nisin 0.5 μg/ml, Lysostaphin 0, milk, 37° C.", "result": 33, "unit": "%"},
      {"measurement": "% survival 2 hr", "setting": "Nisin 1.0 μg/ml, Lysostaphin 0, milk, 37° C.", "result": 9, "unit": "%"},
      {"measurement": "% survival 2 hr", "setting": "Nisin 2.0 μg/ml, Lysostaphin 0, milk, 37° C.", "result": "2.5% and 0.5%"},
      {"measurement": "% survival 2 hr", "setting": "Nisin 4.0 μg/ml, Lysostaphin 0, milk, 37° C.", "result": 0.5, "unit": "%"},
      {"measurement": "bactericidal activity in milk (in words)", "setting": "milk, 37° C.", "result": "little practical bactericidal activity"}
    ]},
    {"substance": "Lysostaphin", "values": [
      {"measurement": "% survival 2 hr", "setting": "Lysostaphin 1.0 μg/ml, Nisin 0, milk, 37° C.", "result": "< 10^-3%"},
      {"measurement": "log reduction in viable cells", "setting": "Lysostaphin alone 1.0 μg/ml in milk", "result": "more than a five log reduction"}
    ]}
  ]
}
